“Also recorded” adds a separate entry of the source.
Tests used:
[1] = system: FN fibril; conditions: in vitro; ref [29]; cited from earlier work
Description: Therefore, we used the experimental group treated with scrambled peptide as the control group. In Fig. 3A and 3B, IHC analysi ... || In vitro studies have shown that FN is required as a scaffold for collagen deposition. Inhibiting FN polymerization with antibodies or inhibitors prevents FN and collagen fibril deposition into the ECM in vitro [27, 31].

[2] = system: U937 cells / HUVECs; assay: Monocyte U937 transendothelial migration assay; assay type: cell-based, human; conditions: HUVECs on 5um transwells, 10 ng/ml TNF-α; U937 1.5x10^5 cells/transwell, 1.5 hours at 37°C; fluorescence 485/535; mean ± SD
Description: For in vivo experiments, the data are shown as the mean ± SEM. For in vitro experiments, the data shown are the means ± SD of a representative experiment, at least 3 independent experiments were performed. One-way ANOVA with post-hoc testing were used for data analysis with GraphPad Prism software (GraphPad, San Diego, CA). If normality test failed, nonparametric Kruskal-Wallis test followed by Dunn's post-hoc test were used. P > 0.05 was not considered significant.

[3] = system: collagen-FN binding; conditions: in vitro; ref [29],[30],[33]; cited from earlier work
Description: (§1) In order to assess whether inhibiting collagen type I deposition reduces vascular remodeling in an in vivo mouse model, we used the collagen inhibitory peptide R1R2 for this study. The R1R2 peptide is derived from two repeat domains of the bacterial adhesin SFS, and is highly homologous to collagen. […] It is likely that R1R2 blocks collagen type I fibril formation around cells by binding to the collagen-binding domain of FN. To characterize the effects of our synth ...

[4] = system: collagen type I; conditions: in vitro; ref [29],[30],[33]; cited from earlier work
Description: as §1

[5] = system: smooth muscle cell; conditions: in vitro; ref [29],[30],[33]; cited from earlier work
Description: as §1

[6] = system: collagen type I; assay: IHC for collagen type I in ligated carotid artery; assay type: in vivo, FVB/NJ (FVB) mice; conditions: 7 days after surgery; 20 μM peptide in pluronic gel; mean ± SEM; R1R2 n = 6, scrambled n = 6
Description: Animals were anesthetized with isoflurane inhalation. The left common carotid artery was exposed, dissected free from the surrounding connective tissue and completely ligated with 6-0 silk suture just proximal to the carotid bifurcation. […] 4–10 mice were included in each experimental group.
Paraffin sections selected from the first mm of the carotid artery in each group were used for immunohistochemistry (IHC). […] Sections were then incubated with appropriate biotinylated secondary antibodies followed by avidin-biotin immunoperoxidase system (Vector Laboratories, Burlingame, CA). Liquid DAB Substrate Chromogen system (Dako, Carpinteria, CA) was used for detection.
Quantitative IHC analysis was performed on digital images captured with a 20x objective by using Image-Pro Plus software. Data from 3–6 mice for each group were averaged, and the average values ± SEM were shown. For FN, collagen type I, SM-MHC and SM α-actin, color digital images were transformed into gray scale, and the sum of the optical densities from the intima+media area in each section was determined. […] The percent of positive cells is reported as the proliferation index. […] The intima+media region was traced manually. The percent of positively stained area in intima+media to the total traced area was assessed.
For in vivo experiments, the data are shown as the mean ± SEM. […]

[7] = system: HUVECs; assay: HUVEC proliferation assay; assay type: cell-based, human; conditions: at the start of the adhesion assay, versus control peptide; data not shown; in words
Description: Human umbilical vein endothelial cells (HUVECs) and A7r5 SMCs were provided by Resource Center (SB3, NSC 100-2325-B-080-001), National Research Program for Biopharmaceuticals (Hsinchu, Taiwan). HUVECs were maintained in M199 (Life Technologies, Carlsbad, CA) with 25U/ml heparin (Sigma-Aldrich, St. Louis, MO), 10% fetal bovine serum (FBS) and endothelial cell growth supplement (ECGS; Millipore, Billerica, MA). A7r5 SMCs were grown in Dulbecco’s Modified Eagle’s Medium (DMEM) containing high glucose, supplemented with 10% fetal bovine serum. Human U937 cells were grown in RPMI1640 with 10% FBS.
A7r5 cells and HUVECs were growth-arrested and then stimulated with 10% FBS or 10 ng/ml TNF-αovernight after serum starvation as indicated in the figure legend. Briefly, trypan blue-excluding cells were counted with a hemocytometer, and data were analyzed using GraphPad Prism Software (San Diego, CA) as in previous studies. A second observer performed a similar analysis to verify the initial findings.

Sequence: GLNGENQKEPEQGERGEAGPPLSGLSGNNQGRPSLPGLNGENQKEPEQGERGEAGPP [R1R2]
- effect on FN fibril deposition/formation [1]: does not affect FN fibril deposition into the ECM; also recorded: does not alter FN fibril formation
- U937 transendothelial migration [2]: 65633 ± 20412 cells per well
- effect on collagen-FN binding [3]: known to inhibit collagen-FN binding
- effect on collagen type I deposition [4]: known to inhibit collagen-FN binding, collagen type I deposition
- effect on smooth muscle cell migration [5]: known to inhibit collagen-FN binding, collagen type I deposition, and smooth muscle cell migration in vitro
- collagen type I IHC intensity in intima-media area [6]: 0.117 ± 0.007
- effect on HUVEC cell number [7]: No significant decrease
